The target in assay [1] is T1, fMet-Leu-Phe receptor (Homo sapiens, UniProt P21462).
T1 sequence (P21462 whole entry): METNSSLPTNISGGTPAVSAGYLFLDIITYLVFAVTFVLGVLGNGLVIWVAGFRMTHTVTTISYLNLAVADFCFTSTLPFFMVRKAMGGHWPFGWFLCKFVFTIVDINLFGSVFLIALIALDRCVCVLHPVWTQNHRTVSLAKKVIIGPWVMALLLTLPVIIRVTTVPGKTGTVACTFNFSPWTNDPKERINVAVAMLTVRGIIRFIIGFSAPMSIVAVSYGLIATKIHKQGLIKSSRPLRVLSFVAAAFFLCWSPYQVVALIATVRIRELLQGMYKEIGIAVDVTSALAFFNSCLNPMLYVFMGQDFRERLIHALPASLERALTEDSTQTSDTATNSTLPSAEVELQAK
Kind of assay: FPR ligands, dose response (AID 519). Type of assay: functional.

Assay [2] deals with T2, Corticotropin-releasing factor receptor 2/Corticotropin-releasing factor-binding protein (Homo sapiens, UniProt P24387+Q13324).
T2 sequence (Q13324 whole entry): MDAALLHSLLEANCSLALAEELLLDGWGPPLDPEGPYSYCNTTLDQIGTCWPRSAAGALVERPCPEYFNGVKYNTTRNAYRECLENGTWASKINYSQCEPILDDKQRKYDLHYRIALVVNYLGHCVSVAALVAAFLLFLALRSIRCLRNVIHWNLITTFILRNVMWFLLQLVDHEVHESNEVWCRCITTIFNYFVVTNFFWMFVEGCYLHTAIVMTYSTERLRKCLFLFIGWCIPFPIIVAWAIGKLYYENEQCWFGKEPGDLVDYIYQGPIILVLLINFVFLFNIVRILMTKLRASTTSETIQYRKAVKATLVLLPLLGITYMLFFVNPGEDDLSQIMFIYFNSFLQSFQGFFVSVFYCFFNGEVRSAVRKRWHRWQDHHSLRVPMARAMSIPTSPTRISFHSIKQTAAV
T2 sequence (P24387 whole entry): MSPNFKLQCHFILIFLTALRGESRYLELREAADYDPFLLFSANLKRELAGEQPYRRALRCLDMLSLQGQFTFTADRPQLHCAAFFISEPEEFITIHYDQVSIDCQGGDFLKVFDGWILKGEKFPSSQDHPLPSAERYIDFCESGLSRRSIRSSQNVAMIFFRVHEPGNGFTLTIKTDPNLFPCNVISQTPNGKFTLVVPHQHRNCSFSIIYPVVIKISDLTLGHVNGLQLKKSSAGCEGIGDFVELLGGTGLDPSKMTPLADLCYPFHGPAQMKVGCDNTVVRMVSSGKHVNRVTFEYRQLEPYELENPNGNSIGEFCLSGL
Kind of assay: Dose Response confirmation of uHTS hits for small molecule antagonists of the CRF-binding protein and CRF-R2 receptor complex. Type of assay: functional. The note with it: read-out: IC50_Mean.

For assay [3], the target named is T2, Corticotropin-releasing factor receptor 2/Corticotropin-releasing factor-binding protein. Kind of assay: activators of CRF receptor 2 with binding protein – uHTS hits, confirmation (AID 602473). Type of assay: functional. The note with it: read-out: EC50_Mean.
Assay [4] deals with Prothrombin (Homo sapiens, UniProt P00734). Briefly: Thrombin 1536 HTS Dose Response Confirmation. [Related pubchem assays: 1046 (Thrombin 1536 HTS; hits were confirmed in this assay)]. Type of assay: functional.
The test system of assay [5] is Streptococcus sp. 'group A'. Kind of assay: growth inhibition of control SK(-) GAS strain, dose response, counter-screen for streptokinase expression inhibitor project, luminescence, kanamycin, BacTiterGlo, confirmation (AID 1900). Type of assay: functional, organism-based.
The nature of assay [6]: Luminescence Cell-Based Dose Retest to Confirm Inhibitors of Cancer Stem Cells. [Related pubchem assays (depositor defined):AID2717, AID2721]. Type of assay: functional. The settings on record: Homo sapiens.
Assay [7] addresses Paired box protein Pax-8 (Homo sapiens, UniProt Q06710). Kind of assay: inhibitors of PAX8-driven TPO luciferase reporter, dose response, RMG-I cells, cherry-pick (AID 687027).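 Further: luciferase reporter driven by Pax8 target thyroperoxidase promoter measured by SteadyGlo luminescence.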 Type of assay: functional, cell-based.
Assay [8] in a line: non-specific cell cytotoxicity, dose response, cytotoxicity control for PAX8 inhibitor project, plate reader, dry powder samples (AID 743021). Type of assay: functional, cell-based.
The subject of assay [9] is Streptococcus. Kind of assay: Group A Streptococcus viability loss, dose response, counter-screen for streptokinase expression inhibitor project, luminescence, BacTiterGlo (AID 1915).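 Further: potency for reduction of bacterial viability or growth.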 It is filed as functional, organism-based.
Assay [10] deals with H9c2. Briefly: cells. It is filed as functional, cell-based. The settings on record: Rattus norvegicus, H9c2, Myocardium.
In assay [11] the target is T3, Streptokinase A (Streptococcus pyogenes serotype M1, UniProt P10520).
T3 sequence (P10520 whole entry): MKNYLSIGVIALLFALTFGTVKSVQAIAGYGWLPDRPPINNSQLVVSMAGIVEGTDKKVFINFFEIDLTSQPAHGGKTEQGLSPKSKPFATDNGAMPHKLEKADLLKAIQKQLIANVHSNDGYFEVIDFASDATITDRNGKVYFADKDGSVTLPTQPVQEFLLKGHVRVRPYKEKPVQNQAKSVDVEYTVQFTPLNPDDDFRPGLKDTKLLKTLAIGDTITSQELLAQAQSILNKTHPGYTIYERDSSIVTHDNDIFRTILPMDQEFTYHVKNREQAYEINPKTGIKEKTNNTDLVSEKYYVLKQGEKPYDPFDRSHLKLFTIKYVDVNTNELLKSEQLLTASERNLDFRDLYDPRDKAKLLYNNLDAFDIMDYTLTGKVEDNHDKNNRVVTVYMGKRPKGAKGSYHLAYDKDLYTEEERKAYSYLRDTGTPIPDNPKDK
Kind of assay: S. pyogenes streptokinase expression inhibitors, potency, dose response, plasminogen activation absorbance, OD405 (AID 1914).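 Further: secreted streptokinase activity via plasminogen activation per viability signal from cell pellet.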 It is filed as functional, Streptococcus pyogenes M1 GAS.

For assay [12], the target named is Cytochrome P450 2C19 (Homo sapiens, UniProt P33261). Kind of assay: Cytochrome panel assay with activity outcomes. Panel member name: p450-cyp2c19 Compounds with AC50 equal or less than 10 uM are considered active. The note with it: read-out: AC50. It is filed as functional.
Chain of Cytochrome P450 2C19 (P33261 whole entry): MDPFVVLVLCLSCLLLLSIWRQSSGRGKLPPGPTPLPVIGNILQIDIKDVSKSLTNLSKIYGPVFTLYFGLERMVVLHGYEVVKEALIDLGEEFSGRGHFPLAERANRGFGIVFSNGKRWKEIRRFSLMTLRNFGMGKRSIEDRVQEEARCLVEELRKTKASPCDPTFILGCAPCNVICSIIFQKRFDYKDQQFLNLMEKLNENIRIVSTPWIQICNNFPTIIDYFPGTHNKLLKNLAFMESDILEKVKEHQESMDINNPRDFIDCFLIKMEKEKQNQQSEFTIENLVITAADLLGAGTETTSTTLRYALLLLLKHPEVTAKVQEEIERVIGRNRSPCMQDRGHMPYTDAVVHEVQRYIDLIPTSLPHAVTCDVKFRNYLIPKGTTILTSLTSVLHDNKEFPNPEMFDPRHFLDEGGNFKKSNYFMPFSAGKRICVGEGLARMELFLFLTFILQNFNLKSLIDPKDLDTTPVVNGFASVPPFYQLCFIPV
The target of assay [13] is Cytochrome P450 2C9 (Homo sapiens, UniProt P11712).
Chain of Cytochrome P450 2C9 (P11712 whole entry): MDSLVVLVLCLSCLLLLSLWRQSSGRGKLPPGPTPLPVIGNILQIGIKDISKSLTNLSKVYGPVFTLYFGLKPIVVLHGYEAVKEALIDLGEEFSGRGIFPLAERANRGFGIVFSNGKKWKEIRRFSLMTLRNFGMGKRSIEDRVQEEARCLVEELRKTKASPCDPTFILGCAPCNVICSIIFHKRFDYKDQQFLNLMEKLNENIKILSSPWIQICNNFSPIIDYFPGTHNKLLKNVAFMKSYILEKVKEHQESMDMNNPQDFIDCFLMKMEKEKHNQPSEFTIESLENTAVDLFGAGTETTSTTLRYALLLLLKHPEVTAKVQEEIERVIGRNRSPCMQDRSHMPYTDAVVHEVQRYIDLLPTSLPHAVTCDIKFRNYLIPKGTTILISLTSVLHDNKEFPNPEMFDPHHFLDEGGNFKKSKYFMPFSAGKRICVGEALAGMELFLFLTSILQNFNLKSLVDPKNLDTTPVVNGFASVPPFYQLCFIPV
The nature of assay [14]: A Cell Based Secondary Assay To Explore Cytotoxicity of Compounds that Sensitize Mycobacterium Tuberculosis to Beta-Lactam Antibiotics. Type of assay: functional.
The target in assay [15] is T4, Histone-lysine N-methyltransferase NSD2 (Homo sapiens, UniProt O96028).
T4 sequence (O96028 whole entry): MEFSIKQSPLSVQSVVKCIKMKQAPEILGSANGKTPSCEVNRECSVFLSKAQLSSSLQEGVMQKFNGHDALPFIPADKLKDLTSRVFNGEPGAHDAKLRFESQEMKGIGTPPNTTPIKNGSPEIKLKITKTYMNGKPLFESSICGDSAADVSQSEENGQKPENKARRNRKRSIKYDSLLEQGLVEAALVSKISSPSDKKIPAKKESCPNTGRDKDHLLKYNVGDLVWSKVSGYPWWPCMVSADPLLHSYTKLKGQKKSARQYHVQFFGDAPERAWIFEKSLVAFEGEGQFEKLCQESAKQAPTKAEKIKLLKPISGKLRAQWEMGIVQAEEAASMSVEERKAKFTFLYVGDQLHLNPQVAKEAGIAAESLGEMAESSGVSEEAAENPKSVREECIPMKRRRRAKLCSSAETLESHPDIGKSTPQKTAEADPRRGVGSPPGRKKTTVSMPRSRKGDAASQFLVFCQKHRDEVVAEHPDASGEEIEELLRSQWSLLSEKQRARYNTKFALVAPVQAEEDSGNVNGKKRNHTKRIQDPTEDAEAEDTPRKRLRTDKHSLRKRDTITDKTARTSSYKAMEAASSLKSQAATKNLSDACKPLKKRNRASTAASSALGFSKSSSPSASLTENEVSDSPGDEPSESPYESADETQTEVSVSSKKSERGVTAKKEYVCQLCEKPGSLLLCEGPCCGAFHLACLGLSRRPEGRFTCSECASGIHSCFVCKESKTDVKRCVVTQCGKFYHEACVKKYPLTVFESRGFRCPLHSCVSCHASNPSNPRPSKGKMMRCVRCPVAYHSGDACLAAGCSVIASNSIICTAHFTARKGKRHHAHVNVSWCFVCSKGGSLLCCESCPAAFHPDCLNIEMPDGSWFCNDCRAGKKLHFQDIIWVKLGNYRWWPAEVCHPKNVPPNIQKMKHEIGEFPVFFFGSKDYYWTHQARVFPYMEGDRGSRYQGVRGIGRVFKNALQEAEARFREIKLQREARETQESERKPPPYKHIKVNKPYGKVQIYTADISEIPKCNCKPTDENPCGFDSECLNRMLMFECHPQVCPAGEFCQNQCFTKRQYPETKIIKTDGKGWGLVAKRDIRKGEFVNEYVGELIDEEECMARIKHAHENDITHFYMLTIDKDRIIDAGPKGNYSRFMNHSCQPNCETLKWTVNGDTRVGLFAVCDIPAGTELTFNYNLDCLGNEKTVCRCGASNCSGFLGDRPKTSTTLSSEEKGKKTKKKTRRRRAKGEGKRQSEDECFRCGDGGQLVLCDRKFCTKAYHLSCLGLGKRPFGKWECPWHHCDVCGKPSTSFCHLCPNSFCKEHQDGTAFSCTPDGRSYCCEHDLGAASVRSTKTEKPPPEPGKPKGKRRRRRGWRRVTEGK
It is filed as biochemical.

Assay [16] has as its target Induced myeloid leukemia cell differentiation protein Mcl-1 (Homo sapiens, UniProt Q07820). It is filed as functional.
The nature of assay [17]: microbe, parasite or virus in culture. Type of assay: functional. The note with it: Mycobacterium tuberculosis.
Assay [18] has as its system INS1. Kind of assay: beta cell apoptosis inhibitors, cytokine rescue, dose response, luminescence, retest (AID 449756).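 Further: cell death triggered by IL-1 beta plus TNF-alpha plus IFN-gamma mixture; protective hits raise ATP signal compared with cytokine alone wells.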 It is filed as functional, cell-based. The note with it: Rattus norvegicus.
In assay [19] the target is T5, Calpain-2 catalytic subunit (Sus scrofa, UniProt P43367).
T5 sequence (P43367 whole entry): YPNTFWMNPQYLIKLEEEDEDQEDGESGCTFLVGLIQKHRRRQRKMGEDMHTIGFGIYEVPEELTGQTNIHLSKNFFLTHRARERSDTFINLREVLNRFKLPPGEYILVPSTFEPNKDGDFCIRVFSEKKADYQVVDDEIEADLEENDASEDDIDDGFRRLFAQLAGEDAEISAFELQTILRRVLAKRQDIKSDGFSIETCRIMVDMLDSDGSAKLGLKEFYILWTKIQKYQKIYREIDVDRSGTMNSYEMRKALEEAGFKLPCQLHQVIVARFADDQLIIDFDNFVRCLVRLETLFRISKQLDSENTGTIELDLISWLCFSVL
Briefly: pig calpain II inhibitor potency, dose response, biochemical, fluorogenic peptide substrate (AID 1420). It is filed as functional.

Assay [20] can be described thus: NIH:OVCAR-3 ovarian cancer cell cytotoxicity, dose response, PAX8 inhibitor project, plate reader, dry powder samples (AID 743044). It is filed as functional, cell-based.

One may read the Ki as a measure of affinity in units of concentration, obtained from inhibition or displacement. By AC50 is commonly meant the midpoint of the concentration-response curve, whichever way the signal moves.

Active and inactive are the calls of the source.

Chain of Paired box protein Pax-8 (Q06710 whole entry): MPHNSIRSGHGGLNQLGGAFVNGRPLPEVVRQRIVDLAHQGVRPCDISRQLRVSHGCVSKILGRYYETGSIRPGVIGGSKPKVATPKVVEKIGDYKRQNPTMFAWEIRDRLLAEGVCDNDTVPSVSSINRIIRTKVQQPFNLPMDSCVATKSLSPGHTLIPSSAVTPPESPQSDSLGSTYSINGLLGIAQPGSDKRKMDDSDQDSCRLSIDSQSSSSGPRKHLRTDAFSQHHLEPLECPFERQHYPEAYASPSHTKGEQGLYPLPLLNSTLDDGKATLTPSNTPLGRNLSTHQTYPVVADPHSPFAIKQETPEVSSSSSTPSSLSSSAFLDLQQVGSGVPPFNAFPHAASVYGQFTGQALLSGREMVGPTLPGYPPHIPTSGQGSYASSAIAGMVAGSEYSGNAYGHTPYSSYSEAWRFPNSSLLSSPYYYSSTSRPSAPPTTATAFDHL
Chain of Induced myeloid leukemia cell differentiation protein Mcl-1 (Q07820 whole entry): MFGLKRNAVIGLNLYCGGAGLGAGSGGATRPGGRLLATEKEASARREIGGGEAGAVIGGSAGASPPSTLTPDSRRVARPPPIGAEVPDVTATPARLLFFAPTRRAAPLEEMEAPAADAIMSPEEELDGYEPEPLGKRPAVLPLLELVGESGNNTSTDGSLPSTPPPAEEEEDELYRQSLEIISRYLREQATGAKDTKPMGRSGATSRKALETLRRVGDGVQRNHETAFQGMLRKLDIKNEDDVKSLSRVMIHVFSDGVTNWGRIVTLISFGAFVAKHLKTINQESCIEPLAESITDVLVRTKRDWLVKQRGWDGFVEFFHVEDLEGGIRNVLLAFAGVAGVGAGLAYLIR

Turning to `COc1cc(C2C(C(=O)c3ccco3)=C(O)C(=O)N2c2cc(C)on2)cc(Br)c1O` (configuration not stated), in [1], the Ki is 47.7 µM (inactive). In addition, in assay [2], the IC50 was > 47.1 µM (inactive). In assay [3], the EC50 is > 53 µM (inactive).

For `COc1ccccc1Oc1c(C)oc2c(CN(C)C)c(O)ccc2c1=O`, the Ki in assay [1] is > 66.7 µM (inactive). In the case of `CC(C)Nc1nc(C#N)nc(NC(C)C)n1`, the IC50 in assay [4] is 23 µM (active). Regarding `O=C(Nc1cccc(NC(=O)c2ccc([N+](=O)[O-])o2)c1)c1ccco1`, the EC50 in assay [5] is 7.34 µM (active); in assay [9], 22.7 µM (active); in assay [11] it was 111 µM (active). The half-maximal activity concentration (AC50) in assay [6] is 2.95 µM (active); in [7], 5.2 µM (active); in assay [8], 66.2 µM (active). Also, in assay [10], the IC50 is > 79 µM (inactive). Regarding `Cc1nc2c(C)cccn2c1C(=O)C1=C(O)C(=O)N(CCN2CCOCC2)C1c1cccs1` (configuration not stated), the results for the concentration at half-maximal activity (AC50) in assay [12] and in assay [13] were 8.91 µM (inconclusive) and 10 µM (inconclusive), respectively. For the same molecule, the Ki in assay [1] was > 66.7 µM (inactive). With `Cc1ccc(OCc2nnc(S)n2N)cc1C`, the IC50 in assay [4] is reported as > 50 µM (not active). Still for that read-out and setting: the value for `COC(=O)Cc1ccc(NC(=S)N2CCN(c3ccc(F)cc3)CC2)cc1` was > 50 µM (not active); that for `Nc1nc(-c2cccnc2)nn1C(=O)c1ccc(Cl)cc1` was 0.781 µM (active). Turning to `COc1ccc(-c2cc(-c3ccc(OC)cc3)nc(-c3ccc4c(c3)NC(=O)CO4)c2)cc1`, the CC50 in assay [14] was 38.7 µM (active).

On to `COC(=O)c1[nH]c2ccccc2c1/C=C1\C(=O)NC(=O)N(c2ccc(Br)cc2)C1=O`, for which the AC50 in [15] was > 20 µM (inactive). Moreover, the IC50 in assay [16] is 9.03 µM (active). With `O=C(c1cccnc1)n1nc(-c2ccco2)nc1NCc1cccs1`, the IC50 in assay [4] is 0.001 µM (active).

`COc1cccc(NS(=O)(=O)c2ccc3ncc(C(=O)NCCC(C)C)c(O)c3c2)c1`: in assay [14], the CC50 was > 40 µM (active). Consider `CCOC(=O)N1CCC(NC(=O)c2cc(C(=O)Nc3ccc(OC)c(OC)c3)ccc2CO)CC1`, for which the Ki in [1] was > 66.7 µM (inactive). For the molecule `CCCCCCCNC1=CC(=O)CC(c2ccccc2)C1` (configuration not stated), the CC50 in [17] was 38 µM (active). Also, in [18], the AC50 is 6.36 µM (active). For the same molecule, the IC50 in assay [19] is 9.58 µM (not active).

In the case of `CC(C)NC(=O)N(C)C[C@H]1OCCCC[C@H](C)Oc2ccc(NC(=O)Nc3ccc(C(F)(F)F)cc3)cc2C(=O)N([C@H](C)CO)C[C@@H]1C`, the results for the AC50 in [20] and in [7] were 53.3 µM (active) and 12.5 µM (active), respectively. On to `COc1ccc(OC)c(C2C(C(=O)c3ccco3)=C(O)C(=O)N2CCCN2CCOCC2)c1` (configuration not stated), for which the Ki in [1] is 26.4 µM (inactive). With `CCN(CC)CCNC(=O)c1ccc(NC(=O)c2cn(-c3ccccc3)nc2-c2cccs2)cc1`, the CC50 in assay [17] is 7.35 µM (active). For the same molecule, the AC50 in [18] is 6.79 µM (active).
